Key:
[1] = tested on: Gtl2^off and Gtl2^on iPSCs, ESCs; test: Retinoic acid in vitro differentiation of iPSCs and ESCs, qPCR; format: cell-based, mouse; conditions: for Meg3/Gtl2 and Rian expression during differentiation: RA 5 days
Method: To assess if silencing of Meg3/Gtl2 might be resolved during differentiation, Gtl2^off and Gtl2^on iPSCs as well as ESCs were exposed to the differentiation-stimulating agent retinoic acid (RA) for 5 days. […] The expression of imprinted genes outside of chromosome 12qF1 was not affected (FIG. 3f, bottom, and FIG. 10)
(§1) cDNA was produced with the First Strand cDNA Synthesis Kit (Roche) using 1 μg of total RNA input. Real-time quantitative PCR reactions were set up in triplicate using 5 μl of cDNA (1:100 dilution) with the Brilliant II SYBR Green QPCR Master Mix (Stratagene) and run on a Mx3000P QPCR System (Stratagene).

[2] = tested on: Meg3/Gtl2 expression in Gtl2^off iPSC clone #45 subclones; test: Valproic acid treatment of Gtl2off iPSC subclones, Meg3/Gtl2 expression by qPCR; format: cell-based, mouse
Method: as §1

[3] = tested on: chromatin marks at the Gtl2 promoter; test: Chromatin immunoprecipitation at the Meg3/Gtl2 locus after VA rescue; format: cell-based, mouse; conditions: VA-rescued clone
Method: 20 million iPSCs, ESCs or MEFs were fixed with 1% formaldehyde for 10 minutes at room temperature (RT) and then lysed in 1 ml lysis buffer (50 mM Tris-HCl, pH 8.0, 10 mM EDTA, 1% SDS, protease inhibitors) for 20 minutes on ice. The lysate was split into three tubes and sonicated using Bioruptor for five times five minutes at high intensity, 30 sec on-30 sec off. After 10 minutes centrifugation, the supernatant was precleared for 1 hour at 4° C. with agarose beads preblocked with BSA (1 mg BSA for 10 ml beads) in IP Buffer (50 mMM Tris-HCl, pH8, 150 mM NaCl, 2 mM EDTA, 1% NP-40, 0.5% Sodium Deoxycholate, 0.1% SDS, protease inhibitors). […] of precleared chromatin per reaction diluted in 1 ml IP Buffer in presence of 2 ug antibody were used for each immunoprecipitation reaction according to manufacturer's protocol. The antibodies used for this study were: anti-aCH3 (06-5 99 Millipore), anti-acH4 (06-866, Millipore), anti-dimethyl K4 of H3 (07-030, Millipore), anti-trimethyl K27 of H3 (ab6002, Abcam) and normal rabbit IgG (Millipore). The precipitate was purified using Qiaquick PCR purification kit and was analyzed by qPCR using Brilliant II SYBR Green qPCR Master Mix (600828, Agilent Technologies) using the sequence specific primer sets. Gtl2: 5′-[…]-3′ (FWD) and 5′-[…]3′ (REV) and Pou5f1: 5′-[…]-3′ (FWD) and 5′-[…]-3′ (REV).

[4] = tested on: development of all-iPSC embryos/pups; test: 4n blastocyst injection of VA-rescued iPSC clone; format: in vivo, mouse
Method: 2n and 4n blastocyst injections were performed as described before (Eggan, K et al., PNAS USA 98(11):6209 (2001)). Briefly, female BDF1 mice were super-ovulated by intraperitoneal injection of PMS and hCG and mated to BDF1 stud males. Zygotes were isolated from females with a vaginal plug 24 hour after hCG injection. Zygotes for 2n injections were in vitro cultured for 3 days in vitro in KSOM media, blastocysts were identified, injected with ESCs or iPSCs and transferred into pseudopregnant recipient females. For 4n injections, zygotes were cultured overnight until they reached the 2-cell stage, at which point they were electrofused.

[5] = tested on: Dlk1-Dio3 locus (IG-DMR) methylation in iPSCs; test: Derivation of iPS cells in the presence of ascorbic acid, DNA methylation at the Dlk1-Dio3 locus; format: cell-based, mouse
Method: These are 1) repression of an enzyme called Dnmt3a or 2) addition of ascorbic acid (Vitamin C) to do cell culture media during reprogramming (FIG. 15).
MEFs with a doxycycline-inducible polycistronic reprogramming cassette in their genome (Stadtfeld, M. et al. A reprogrammable mouse strain from gene-targeted embryonic stem cells. Nature methods 7(1):53-5) were reprogrammed into iPS cells by culture in either doxycycline-containing ESC media or doxycycline-containing ESC media with 50 ng/μl ascorbic acid (Sigma A4544). Doxycline was withdrawn after 10-14 days of culture and emerging iPS cell colonies picked and expanded in regular ESC culture media (without doxycycline, without ascorbic acid). Pluripotency of established iPS cell clones was confirmed by marker gene expression and blastocyst injections.
Genomic DNA was isolated using the DNeasy Blood and Tissue Kit (Qiagen) and bisulfite converted using the EpiTect Bisulfite Kit (Qiagen) with 100-1000 ng input. Converted DNA was used for PCR to amplify the regulatory IG-DMR region and PCR products were sequenced using the Pyrosequencing PSQ96 HS System (Biotage AB) (Stadtfeld, M. et al. Aberrant silencing of imprinted genes on chromosome 12qF1 in mouse induced pluripotent stem cells).

Structure (SMILES): CC1=C(/C=C/C(C)=C/C=C/C(C)=C/C(=O)O)C(C)(C)CCC1 [retinoic acid, all-trans retinoic acid]
- Meg3/Gtl2 and Rian expression during differentiation ([1]; Gtl2^off iPSCs): stable silencing
- Dlk1 expression upon differentiation ([1]; Gtl2^off iPSCs, RA treated): express high levels
- Meg3/Gtl2 and Rian expression during differentiation ([1]; Gtl2^on iPSCs and ESCs): readily upregulated
- Pou5f1 expression ([1]; all RA-treated clones, 5 days): downregulation of Pou5f1

Structure (SMILES): CCCC(CCC)C(=O)O [valproic acid]
- subclones exhibiting increased Meg3/Gtl2 expression ([2]; Gtl2^off iPSC subclones treated with VA): two out of 21
- Meg3/Gtl2 expression level of rescued clone ([2]; one VA-treated iPSC clone, versus ESCs): comparable to ESCs
- activation-associated chromatin marks at the Meg3/Gtl2 locus [3]: re-appearance of H3K4 methylation and H3 acetylation
- full-term development after 4n blastocyst injection ([4]; VA-rescued clone, not seen with parental iPSCs): supported the development of several full-term pups
- phenotype of full-term pups ([4]; pups from VA-rescued clone): severely overgrown, however, and hence non-viable

Structure (SMILES): O=C1O[C@H]([C@@H](O)CO)C(O)=C1O [ascorbic acid]
- abnormal methylation in iPSCs ([5]; FIG. 15b): prevents abnormal methylation
- frequency of "normal iPSCs" ([5]; ascorbic acid added to culture media during reprogramming): dramatically increased

From patent US20130196865A1, “METHOD FOR SELECTING AN IPS CELL” (THE GENERAL HOSPITAL CORPORATION, priority 2010, published 2013)
